# Measurements taken from paper PMC8522752 (Antimicrobial Agents and Chemotherapy, 2021).
# Where two headings read alike, the source gives them in different places.
# Experiments:
# [1] = biological target: DENV NS5 protein (serotype 2) (Dengue virus type 2, UniProt P14340); assay: Nucleotide analogue incorporation / RNA elongation assay; type: biochemical, dengue virus serotype 2; conditions: for effect on RNA synthesis after incorporation: P10/T20 primer-template, with or without GTP
# [2] = Plasma pharmacokinetics in CD-1 mice after oral AT-752; conditions: male, CD-1, mouse, in vivo, 420 mg/kg
# [3] = Plasma pharmacokinetics in cynomolgus monkeys after oral AT-752
# [4] = Plasma pharmacokinetics in Sprague Dawley rats after oral AT-752; conditions: male, Sprague Dawley, rat, in vivo, po, 300 mg/kg
# DENV2 D2Y98P = type: in vivo, AG129 mice
# [5] = monkeys, doses up to 1,000 mg/day for 14 days; S. S. Good, unpublished data
# in vitro = conditions: Sprague Dawley, rat, plasma
# [6] = cynomolgus monkey plasma, 2 μM, 120 min, 37°C
# [7] = set-up: dose or concentration left out as unconfirmed; conditions: rats, doses up to for 14 days; S. S. Good, unpublished data
# [8] = human plasma, 2 μM, 120 min, 37°C
# [9] = Sprague Dawley rat plasma, 10 min of incubation
# [10] = biological target: human cellular DNA-dependent DNA polymerase γ; conditions: read-out: estimated IC50; cited from earlier work
# [11] = monkeys, single oral dose of AT-752 equivalent to 55 mg/kg AT-281, 12 h
# [12] = rats, single oral dose AT-281 300 mg/kg, 24 h
# [13] = mice, single oral dose AT-281 50 mg/kg, 12 h, pooled from 3 animals
# [14] = biological target: human cellular DNA-dependent DNA polymerase α; conditions: read-out: estimated IC50; cited from earlier work
# [15] = biological target: human cellular DNA-dependent DNA polymerase β; conditions: read-out: estimated IC50; cited from earlier work
# [16] = system: human mitochondrial DNA-directed RNA polymerase (POLRMT); conditions: cited from earlier work
# DENV = system: DENV; set-up: method as in PMID 22807519; conditions: cited from earlier work
# [17] = Cardiomyocyte assay (CellTiter Glo); type: cell-based; conditions: human iPS cardiomyocytes
# [18] = male, cynomolgus, cynomolgus monkey, in vivo, po, 300 mg/kg
compound,measurement,setting,value
"Nc1nc2c(ncn2[C@@H]2O[C@H](COP(=O)(O)OP(=O)(O)OP(=O)(O)O)C[C@H]2O)c(=O)[nH]1 [3′-dGTP, reference compound]",effect on RNA synthesis after incorporation,[1],equivalent profile
"C[C@@]1(F)[C@H](O)[C@@H](CO)O[C@H]1n1cnc2c(=O)[nH]c(N)nc21 [AT-273, 2′-fluoro-2′-C-methyl guanosine]",AUC(0-t),[2],18.8 ± 6 µM·h
same,Cmax,[2],2.3 ± 0.7 µM
same,AUC(0-t),[3]; [18],7.8 ± 2.4 µM·h
same,Cmax,[3]; [18],0.8 ± 0.2 µM
same,plasma AT-273 concentration,"CD-1, mouse, in vivo",1.35 ± 0.86 nmol/mL
same,plasma AT-273 concentration,"mice, AT-281 1,000 mg/kg loading then 500 mg/kg BID 3 days, 12 h after the first 500-mg/kg dose",0.67 ± 0.12 nmol/mL
same,AUC(0-t),[4],22.9 µM·h
same,Cmax,[4],1.3 ± 0.3 µM
same,Tmax,[4],8 h
CNc1nc(N)nc2c1ncn2[C@@H]1O[C@H](CO[P@](=O)(O)N[C@@H](C)C(=O)O)[C@@H](O)[C@@]1(C)F [AT-551],AUC(0-t),[2],58.7 ± 13.3 µM·h
same,Cmax,[2],45.1 ± 12 µM
same,Tmax,[2],0.5 h
same,AUC(0-t),[3]; [18],9.7 ± 2.2 µM·h
same,Cmax,[3]; [18],2 ± 0.8 µM
same,Tmax,[3]; [18],2 h
same,AUC(0-t),[4],56.5 µM·h
same,Cmax,[4],16.5 ± 10.8 µM
CNc1nc(N)nc2c1ncn2[C@@H]1O[C@H](CO[P@](=O)(N[C@@H](C)C(=O)OC(C)C)Oc2ccccc2)[C@@H](O)[C@@]1(C)F [AT-752],"viremia vs vehicle, day 6 pi","DENV2 D2Y98P; AG129 mice, oral 1,000 mg/kg loading 4 h before challenge then 500 mg/kg BID 7 days, P = 0.000014",significantly lower
same,"viremia vs control, day 4 pi",DENV2 D2Y98P; same regimen,did not demonstrate a difference in viremia
same,survival vs vehicle (Kaplan-Meier),"DENV2 D2Y98P; same regimen, P = 0.0004, Mantel-Cox log rank test",significantly improved the survival
same,health scores vs vehicle,"DENV2 D2Y98P; same regimen, day 4 to day 9 pi, P < 0.001",significantly better health scores
same,weight loss vs vehicle,"DENV2 D2Y98P; same regimen, days 5, 7 and 8 pi, P < 0.001",significantly reduced weight loss
same,spleen viral load vs control by day 7 pi,"DENV2 D2Y98P; same regimen, reduced compared to control",not statistically different
same,viremia by day 8 pi,"DENV2 D2Y98P; same regimen, virus still measurable in all surviving controls, P = 0.0045",cleared in all treated animals
same,safety findings,[5],no safety concerns
same,half-life,in vitro,< 3 min
same,unusual or adverse clinical signs after dosing,"[3]; monkeys, oral AT-752 300 mg/kg or 60 mg/kg, observed before and after dosing and at blood collections",no such signs noted
same,% of starting concentration remaining,[6],98.2%
same,safety findings,[7],no safety concerns
same,% of starting concentration remaining,[8],93.5%
same,drug remaining at first time point,[9],no drug remaining
C[C@@]1(F)[C@H](O)[C@@H](COP(=O)(O)OP(=O)(O)OP(=O)(O)O)O[C@H]1n1cnc2c(=O)[nH]c(N)nc21 [AT-9010],IC50,[10],> 100 µM
same,AT-9010 concentration in PBMCs,[11],0.070 ± 0.046 pmol/10^6 cells
same,AT-9010 concentration in PBMCs,[12],0.439 ± 0.218 pmol/10^6 cells
same,AT-9010 concentration in PBMCs,[13],0.092 pmol/10^6 cells
same,IC50,[14],> 100 µM
same,AT-9010 concentration in PBMCs,"mice, 500 mg/kg AT-281 then 250 mg/kg 4 h later, 4 h after the second dose",0.297 pmol/10^6 cells
same,IC50,[15],> 100 µM
same,effect on mitochondrial integrity / inhibition of POLRMT,[16],not likely to affect mitochondrial integrity or inhibit human mitochondrial DNA-directed RNA polymerase
same,effect on RNA synthesis after incorporation,[1],immediate chain termination of RNA synthesis
same,discrimination factor (preference for GTP > AT-9010),"[1]; all four NTPs present, band product intensities at +5 and +7 positions",12.6 ± 4.3
CC(C)C(=O)OC[C@@]1(N=[N+]=[N-])O[C@@H](n2ccc(N)nc2=O)[C@H](OC(=O)C(C)C)[C@@H]1OC(=O)C(C)C [balapiravir],viremia in patients infected with DENV,DENV,failed to reduce viremia
same,"antiviral response, cytokine profile and time to fever clearance vs placebo",DENV; tested clinically,no differences between compound and placebo treatment were observed
"COc1cc2nc(N3CCN(C(=O)C4COc5ccccc5O4)CC3)nc(N)c2cc1OC (stereo not drawn) [doxazosin, reference compound]",CC50 at 3 days,[17],7 µM
